{
  "source": "patent US9567318B2",
  "about": "“Substituted pyrimidine compounds and uses thereof” (Memorial Sloan-Kettering Cancer Center, priority 2009, dated 2017)",
  "key": {"[1]": {"system": "MDA-MB-468, SKBr3, LNCaP, MOLM-13, Kasumi-1, OCI-Ly7 and HuH7 cells", "test": "Growth inhibition in a panel of cancer cells", "type": "cell-based, human", "settings": "growth over 72 h", "experimental": "Tested were MDA-MB-468 triple-negative breast cancer cells, SKBr3 HER2+breast cancer cells, LNCaP mAR+prostate cancer cells, MOLM-13 and Kasumi-1 acute myeloid leukemia cells, OCI-Ly7 diffuse large B-cell lymphoma cells and HuH7 hepatocellular carcinoma cells. […] In cancer cells, half growth inhibitory concentrations ([…]) recorded for YK5 were in high agreement with its potency to degrade Hsp90 onco-clients.\nGrowth Inhibition Assay. Antiproliferative effects of inhibitors were evaluated using the dye Alamar blue. This reagent offers a rapid objective measure of cell viability in cell culture, and it uses the indicator dye resazurin to measure the metabolic capacity of cells, an indicator of cell viability. Briefly, cells were plated on Costar 96-well plates. For attached cells (such as SKBr3, MDA-MB-468, LNCaP, MRCS), 8,000 cells/well were used. For suspension cells (such as MOLM-13, Kasumi-1, OCI-Ly7, PBL), 20,000 cells/well were plated. Cells were allowed to incubate for 24 h at 37° C. before drug treatment. Drugs were added in triplicates at the indicated concentrations, and the plate was incubated for 72 h. Alamar Blue (440 μM) was added, and the plate read 6 h later using the Analyst GT (Fluorescence intensity mode, excitation 530 nm, emission 580 nm, with 560=dichroic mirror). Results were analyzed using the Softmax Pro software. The percentage cell growth inhibition was calculated by comparing fluorescence readings obtained from treated versus control cells, accounting for initial cell population (time zero)."}, "Human Hsc70": {"molecular_target": "T1, Human Hsc70 (Homo sapiens, UniProt P11142)", "T1 construct": "made in house", "T1 sequence (P11142 whole entry)": "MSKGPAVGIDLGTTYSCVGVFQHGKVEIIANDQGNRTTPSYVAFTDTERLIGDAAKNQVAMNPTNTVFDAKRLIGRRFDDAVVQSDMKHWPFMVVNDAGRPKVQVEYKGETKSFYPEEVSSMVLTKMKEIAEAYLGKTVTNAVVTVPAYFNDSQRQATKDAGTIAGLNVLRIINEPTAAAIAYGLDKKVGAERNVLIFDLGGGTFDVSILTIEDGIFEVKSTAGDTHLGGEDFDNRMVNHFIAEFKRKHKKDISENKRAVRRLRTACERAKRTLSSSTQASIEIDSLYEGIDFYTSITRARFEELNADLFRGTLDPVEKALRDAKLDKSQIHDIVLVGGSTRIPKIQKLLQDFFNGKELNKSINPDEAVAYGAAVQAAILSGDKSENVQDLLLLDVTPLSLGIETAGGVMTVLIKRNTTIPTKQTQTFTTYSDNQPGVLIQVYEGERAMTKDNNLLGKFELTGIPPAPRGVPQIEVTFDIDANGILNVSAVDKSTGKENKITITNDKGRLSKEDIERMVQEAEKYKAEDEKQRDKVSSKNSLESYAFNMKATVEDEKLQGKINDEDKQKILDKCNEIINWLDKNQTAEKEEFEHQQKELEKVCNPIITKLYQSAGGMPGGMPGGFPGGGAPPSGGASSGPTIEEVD", "test": "Hsc70 ATPase activity", "type": "biochemical", "settings": "100 μM, Hsc70 with co-chaperones, 30° C.", "experimental": "FIG. 6. YK5 inhibits core biochemical functions of Hsp70s and disrupts the Hsp90/Hsp70 interaction. a) Refolding of denatured luciferase by Hsc70 and DJA2 at 30° C. was measured for the indicated times in the presence of YK5 (100 μM) or vehicle (left), or at 60 min in the presence of indicated concentrations of YK5 (right). b) Hsc70 ATPase rates were measured for reactions at 30° C. with the indicated combinations of Hsc70 and co-chaperones in the presence of vehicle (DMSO) or YK5 (100 μM). ADP production was monitored by thin layer chromatography separation of radiolabeled ADP from ATP and phosphorimaging analysis (lower). […] Proteins isolated with anti-Hsp90 and Hsp70s antibodies (IP: Hsp90 or Hsp70), or present in the cell extract (Lysate) were analyzed by WB. […] Proteins were applied to a native gel and analyzed by immunoblotting. […]\nHsc70 ATPase Activity and Luciferase Refolding. Human Hsc70, DJA1/DNAJA1, DJA2/DNAJA2 and Hsp110/Hsp105/HSPH1 were purified and analyzed. […] Samples at time points were terminated with 37.5 mM EDTA and analyzed by thin layer chromatography on polyethylene-imine cellulose (Mallinckrodt Baker) developed in 0.5 M LiCl and 0.5 M formic acid. The ADP produced was determined by image phosphor quantitation and the linear enzymatic rates (Vmax) were calculated by regression analysis. […]"}},
  "data": [
    {"compound": "C=CC(=O)Nc1cc(N)nc(Sc2c(OC)nc(N3CCN(C)CC3)nc2OC)n1", "note": "[YK5, N-(6-amino-2-(4,6-dimethoxy-2-(4-methylpiperazin-1-yl)pyrimidin-5-ylthio)pyrimidin-4-yl)acrylamide]", "values": [
      {"measurement": "growth of all tested cancer cells", "setting": "[1]", "value": "inhibited the growth of all tested cancer cells"},
      {"measurement": "stimulated ATPase rate of Hsc70", "setting": "Human Hsc70", "value": "partially inhibited the stimulated ATPase rate of Hsc70"}
    ]}
  ]
}
